Assay results reported in article PMC11079024, “Identification of a family of species-selective complex I inhibitors as potential anthelmintics” (Nature Communications, 2024).
Like-named read-outs stand apart in the source and are kept apart here.

Legend:
[1] = target: C. elegans (N2) complex I (NADH:ubiquinone oxidoreductase) (Caenorhabditis elegans, UniProt P24887+Q93873+Q94360); assay: biochemical; type: biochemical; settings: for activity at 0.0001 µM / activity at 0.0005 µM / activity at 0.001 µM / activity at 0.0025 µM / activity at 0.005 µM / activity at 0.013 µM / activity at 0.025 µM / activity at 0.063 µM / activity at 0.125 µM / activity at 0.313 µM / activity at 0.625 µM / activity at 1.5 µM / activity at 3 µM / activity at 15 µM / activity at 37.5 µM / activity at 75 µM: read-out: C. elegans mitochondrial complex I activity; for Log IC50 C. elegans complex I: log10 of IC50 in µM, C. elegans mitochondria
Method in brief: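 Activity expressed as percent of solvent control. Complex I rate came from DCIP reduction at 600 nm (initial linear slope, 15 min) with NADH and decylubiquinone as substrates, plus antimycin A and KCN, in pH 7.5 KPi/BSA buffer. Isolated, thrice freeze-thawed mitochondria used at 0.2 mg/mL.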

L1 wild-type C. elegans = assay: microbe, parasite or virus in culture; settings: Caenorhabditis elegans, read-out: C. elegans KCN Survival Assay LC50, estimated from fitted dose-response curves; mean of at least two biological replicates
[2] = wild-type C. elegans, individual Rep1-Rep4, read-out: percent in vitro complex I activity relative to solvent control, single replicates
[3] = wild-type C. elegans, mean of Rep1-4, read-out: percent in vitro complex I activity relative to solvent control, Mean
[4] = in vitro complex I dose response on C. elegans mitochondria, average of at least two biological replicates, fit in R (DRC), read-out: IC50 C. elegans complex I
[5] = wild-type C. elegans mitochondria, estimated from fitted dose-response curves, read-out: C. elegans Complex I IC50

C. elegans (N2) complex I (NADH:ubiquinone oxidoreductase), sequence (Q94360 17-199): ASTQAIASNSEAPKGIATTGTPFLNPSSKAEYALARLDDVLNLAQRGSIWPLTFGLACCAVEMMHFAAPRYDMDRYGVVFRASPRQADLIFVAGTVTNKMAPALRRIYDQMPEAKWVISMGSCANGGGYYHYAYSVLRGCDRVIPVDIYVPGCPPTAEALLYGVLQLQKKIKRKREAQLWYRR
C. elegans (N2) complex I (NADH:ubiquinone oxidoreductase), sequence (P24887 whole entry): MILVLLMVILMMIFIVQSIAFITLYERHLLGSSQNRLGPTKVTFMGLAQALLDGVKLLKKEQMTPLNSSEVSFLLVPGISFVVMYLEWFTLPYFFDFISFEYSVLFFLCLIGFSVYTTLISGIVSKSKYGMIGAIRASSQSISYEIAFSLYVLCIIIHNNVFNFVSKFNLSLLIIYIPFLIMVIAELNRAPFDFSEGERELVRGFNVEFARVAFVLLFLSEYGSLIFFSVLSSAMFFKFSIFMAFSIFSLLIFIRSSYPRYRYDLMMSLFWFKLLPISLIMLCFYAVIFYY
C. elegans (N2) complex I (NADH:ubiquinone oxidoreductase), sequence (Q93873 31-482): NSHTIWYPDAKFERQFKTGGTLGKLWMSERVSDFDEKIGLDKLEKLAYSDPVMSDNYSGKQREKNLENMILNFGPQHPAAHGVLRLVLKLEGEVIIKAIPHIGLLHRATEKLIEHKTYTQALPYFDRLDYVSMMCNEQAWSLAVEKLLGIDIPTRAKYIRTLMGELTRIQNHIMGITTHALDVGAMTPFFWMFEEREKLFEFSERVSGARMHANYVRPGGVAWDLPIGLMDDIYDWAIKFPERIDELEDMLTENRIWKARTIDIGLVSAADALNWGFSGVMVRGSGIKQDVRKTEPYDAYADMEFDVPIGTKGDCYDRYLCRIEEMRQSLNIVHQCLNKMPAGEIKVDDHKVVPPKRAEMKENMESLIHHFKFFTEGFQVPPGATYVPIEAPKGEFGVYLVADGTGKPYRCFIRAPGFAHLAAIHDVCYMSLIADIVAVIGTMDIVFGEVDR

Work on `Clc1ccccc1OCCCCn1cnc2ccccc21` [Compound 7925804] yielded a remaining activity at 0.0001 µM [1, 2] of 106%, a remaining activity at 0.0001 µM [1, 3] of 95.7% and a remaining activity at 0.0005 µM [1, 2] of 98.1%. For the same molecule, the remaining activity at 0.0005 µM [1, 3] was 95.4%, the remaining activity at 0.001 µM ([1]; 0.001 µM, wild-type C. elegans, mean of Rep1-4, read-out: percent in vitro complex I activity relative to solvent control, Mean) was 95.9% and the remaining activity at 0.0025 µM [1, 2] was 100%. For the same molecule, the remaining activity at 0.0025 µM [1, 3] was 100%, the remaining activity at 0.005 µM [1, 2] was 93.7% and the remaining activity at 0.005 µM [1, 3] was 93.4%. It also gave a remaining activity at 0.013 µM [1, 2] of 92.2%, a remaining activity at 0.013 µM [1, 3] of 96.2% and a remaining activity at 0.025 µM [1, 2] of 86.9%. For the same molecule, the remaining activity at 0.025 µM [1, 3] was 94.4%, the remaining activity at 0.063 µM [1, 2] was 83.6% and the remaining activity at 0.063 µM [1, 3] was 81.6%. For the same molecule, the remaining activity at 0.125 µM [1, 2] was 65.6%, the remaining activity at 0.125 µM [1, 3] was 64.9% and the remaining activity at 0.313 µM [1, 2] was 53.9%. It also gave a remaining activity at 0.313 µM [1, 3] of 47.4%, a remaining activity at 0.625 µM ([1]; 0.625 µM, wild-type C. elegans, mean of Rep1-4, read-out: percent in vitro complex I activity relative to solvent control, Mean) of 32.7% and a remaining activity at 1.5 µM ([1]; 1.5 µM, wild-type C. elegans, mean of Rep1-4, read-out: percent in vitro complex I activity relative to solvent control, Mean) of 15.5%. It also gave a remaining activity at 3 µM ([1]; 3 µM, wild-type C. elegans, mean of Rep1-4, read-out: percent in vitro complex I activity relative to solvent control, Mean) of 8.88%, a remaining activity at 15 µM ([1]; 15 µM, wild-type C. elegans, mean of Rep1-4, read-out: percent in vitro complex I activity relative to solvent control, Mean) of 2.59% and a remaining activity at 37.5 µM ([1]; 37.5 µM, wild-type C. elegans, mean of Rep1-4, read-out: percent in vitro complex I activity relative to solvent control, Mean) of 2.95%. The remaining activity at 75 µM ([1]; 75 µM, wild-type C. elegans, mean of Rep1-4, read-out: percent in vitro complex I activity relative to solvent control, Mean) was 6.38%, the activity at 0.0001 µM [1] was 95.7% and the activity at 0.0005 µM [1] was 95.4%. For the same molecule, the activity at 0.001 µM [1] was 95.9%, the activity at 0.0025 µM [1] was 100% and the activity at 0.005 µM [1] was 93.4%. For the same molecule, the activity at 0.013 µM [1] was 96.2%, the activity at 0.025 µM [1] was 94.4% and the activity at 0.063 µM [1] was 81.6%. The activity at 0.125 µM [1] was 64.9%, the activity at 0.313 µM [1] was 47.4% and the activity at 0.625 µM [1] was 32.7%. The activity at 1.5 µM [1] was 15.5%, the activity at 3 µM [1] was 8.88% and the activity at 15 µM [1] was 2.59%. For the same molecule, the activity at 37.5 µM [1] was 2.95%, the activity at 75 µM [1] was 6.38% and the IC50 [1, 4] was 0.27 µM. For the same molecule, the “Log IC50 C. elegans complex I” value [1] was -0.57 µM, the IC50 [1, 5] was 0.27 µM and the LC50 (L1 wild-type C. elegans) was 6.97 µM.
`Cc1ccc(SCCCn2cnc3ccccc32)cc1` [Compound 7926035] was tested, and the activity at 0.0001 µM [1] was 90.2%, the activity at 0.0005 µM [1] was 95.5% and the activity at 0.001 µM [1] was 88.3%. It also gave an activity at 0.0025 µM [1] of 100%, an activity at 0.005 µM [1] of 101% and an activity at 0.013 µM [1] of 96.9%. It also gave an activity at 0.025 µM [1] of 95.3%, an activity at 0.063 µM [1] of 85.5% and an activity at 0.125 µM [1] of 96.1%. For the same molecule, the activity at 0.313 µM [1] was 69.9%, the activity at 0.625 µM [1] was 33.2% and the activity at 1.5 µM [1] was 33.2%. It also gave an activity at 3 µM [1] of 8.58%, an activity at 15 µM [1] of 3.26% and an activity at 37.5 µM [1] of 1.04%. For the same molecule, the activity at 75 µM [1] was 3.35%, the IC50 [1, 4] was 0.54 µM and the “Log IC50 C. elegans complex I” value [1] was -0.27 µM. It also gave an IC50 [1, 5] of 0.54 µM and an LC50 (L1 wild-type C. elegans) of 4.71 µM.
With `CC(C)Oc1cccc(OCCn2cnc3ccccc32)c1` [Compound 7926496] the activity at 0.0001 µM [1] was 80%, the activity at 0.0005 µM [1] was 92.9% and the activity at 0.001 µM [1] was 87.5%. It also gave an activity at 0.0025 µM [1] of 88.5%, an activity at 0.005 µM [1] of 89.3% and an activity at 0.013 µM [1] of 88.3%. It also gave an activity at 0.025 µM [1] of 81.7%, an activity at 0.063 µM [1] of 79.5% and an activity at 0.125 µM [1] of 81.6%. The activity at 0.313 µM [1] was 76.9%, the activity at 0.625 µM [1] was 83.9% and the activity at 1.5 µM [1] was 76.4%. For the same molecule, the activity at 3 µM [1] was 65%, the activity at 15 µM [1] was 17.8% and the activity at 37.5 µM [1] was 0.13%. The activity at 75 µM [1] was 0%, the IC50 [1, 4] was 6.2 µM and the “Log IC50 C. elegans complex I” value [1] was 0.79 µM. For the same molecule, the IC50 ([1]; wild-type C. elegans mitochondria, read-out: C. elegans Complex I IC50) was 6.2 µM and the LC50 (L1 wild-type C. elegans) was 23 µM.
